This assay has as its system M. catarrhalis A894. Briefly: Minimal inhibitory concentration (MIC), microdilution method in cation-adjusted Mueller-Hinton Broth (CLSI M7-A7). The assay is classed as cell-based. As to conditions: Moraxella catarrhalis, strain A894. Here is the method: Minimal inhibitory concentrations (MICs; mg/1) were determined in cation-adjusted Mueller-Hinton Broth by a microdilution method following the description given in “Methods for Dilution Antimicrobial Susceptibility Tests for Bacteria that Grow Aerobically”, Approved standard, 7th ed., Clinical and Laboratory Standards Institute (CLSI) Document M7-A7, Wayne, Pa., USA, 2006.
The molecule `O=C1CSc2ccc(N3C[C@H](CCNCC4CN5C(=O)CCc6ccc(F)c4c65)OC3=O)cc2N1` (mixture of isomers) [Example 29, (1RS)-9-fluoro-1-({2-[(S)-2-oxo-3-(3-oxo-3,4-dihydro-2H-benzo[1,4]thiazin-6-yl)-oxazolidin-5-yl]-ethylamino}-methyl)-1,2,5,6-tetrahydro-pyrrolo[3,2,1-ij]quinolin-4-one] showed an MIC of no more than 0.031 µg/mL.
Molecule `O=C1CSc2ccc(N3C[C@H](CNCC4Cn5c(=O)ccc6ccc(F)c4c65)OC3=O)cc2N1` (mixture of isomers) [Example 30, (1RS)-9-fluoro-1-({[(S)-2-oxo-3-(3-oxo-3,4-dihydro-2H-benzo[1,4]thiazin-6-yl)-oxazolidin-5-ylmethyl]-amino}-methyl)-1,2-dihydro-pyrrolo[3,2,1-ij]quinolin-4-one] had a minimum inhibitory concentration (MIC) of 0.031 µg/mL.
`O=C1O[C@H](CNCC2Cn3c(=O)ccc4ccc(F)c2c43)CN1c1ccc2c(c1)OCCO2` (mixture of isomers) [Example 31, (1RS)-1-({[(R)-3-(2,3-dihydro-benzo[1,4]dioxin-6-yl)-2-oxo-oxazolidin-5-ylmethyl]-amino}-methyl)-9-fluoro-1,2-dihydro-pyrrolo[3,2,1-ij]quinolin-4-one] returned an MIC of 16 µg/mL. Compared with the last molecule, the MIC is about 520-fold higher.
Take `O=C1COc2ccc(N3C[C@@H](CNCC4Cn5c(=O)ccc6ccc(F)c4c65)OC3=O)cc2N1` (mixture of isomers) [Example 32, (1RS)-9-fluoro-1-({[(R)-2-oxo-3-(3-oxo-3,4-dihydro-2H-benzo[1,4]oxazin-6-yl)-oxazolidin-5-ylmethyl]-amino}-methyl)-1,2-dihydro-pyrrolo[3,2,1-ij]quinolin-4-one]: the lowest concentration to inhibit growth (MIC) was 0.031 µg/mL.
The molecule `Cc1ccc(N2C[C@@H](CNCC3Cn4c(=O)ccc5ccc(F)c3c54)OC2=O)cc1F` (mixture of isomers) [Example 33, (1RS)-9-fluoro-1-({[(R)-3-(3-fluoro-4-methyl-phenyl)-2-oxo-oxazolidin-5-ylmethyl]-amino}-methyl)-1,2-dihydro-pyrrolo[3,2,1-ij]quinolin-4-one] registered an MIC of 16 µg/mL.
`O=C1CSc2ccc(N3C[C@@H](CCNCC4Cn5c(=O)ccc6nccc4c65)OC3=O)cc2N1` (mixture of isomers) [Example 34, (RS)-4-({2-[(R)-2-oxo-3-(3-oxo-3,4-dihydro-2H-benzo[1,4]thiazin-6-yl)-oxazolidin-5-yl]-ethylamino}-methyl)-4,5-dihydro-pyrrolo[3,2,1-de][1,5]naphthyridin-7-one]: the MIC is no more than 0.031 µg/mL.
Consider `O=C1CSc2ccc(N3C[C@@H](CCCNC4Cn5c(=O)ccc6cccc4c65)OC3=O)cc2N1` (mixture of isomers) [Example 35, (RS)-1-{3-[(R)-2-oxo-3-(3-oxo-3,4-dihydro-2H-benzo[1,4]thiazin-6-yl)-oxazolidin-5-yl]-propylamino}-1,2-dihydro-pyrrolo[3,2,1-ij]quinolin-4-one], for which the minimum inhibitory concentration (MIC) was no more than 0.031 µg/mL.
Turning to `CCCc1ccc(N2C[C@@H](CNCC3Cn4c(=O)ccc5ccc(F)c3c54)OC2=O)cc1` (mixture of isomers) [Example 37, (RS)-9-fluoro-1-({[(R)-2-oxo-3-(4-propyl-phenyl)-oxazolidin-5-ylmethyl]-amino}-methyl)-1,2-dihydro-pyrrolo[3,2,1-ij]quinolin-4-one], it took 1 µg/mL to inhibit growth (MIC).
In turn, `CCCCc1ccc(N2C[C@@H](CNCC3Cn4c(=O)ccc5ccc(F)c3c54)OC2=O)cc1` (mixture of isomers) [Example 38, (RS)-1-({[(R)-3-(4-butyl-phenyl)-2-oxo-oxazolidin-5-ylmethyl]-amino}-methyl)-9-fluoro-1,2-dihydro-pyrrolo[3,2,1-ij]quinolin-4-one] displayed an MIC of 16 µg/mL.
`CCOc1ccc(N2C[C@@H](CCNCC3Cn4c(=O)ccc5ccc(F)c3c54)OC2=O)cc1` (mixture of isomers) [Example 44, (RS)-1-({2-[(R)-3-(4-ethoxy-phenyl)-2-oxo-oxazolidin-5-yl]-ethylamino}-methyl)-9-fluoro-1,2-dihydro-pyrrolo[3,2,1-ij]quinolin-4-one] registered an MIC of 0.125 µg/mL.
In the case of `CCCc1ccc(N2C[C@@H](CCNCC3Cn4c(=O)ccc5ccc(F)c3c54)OC2=O)cc1` (mixture of isomers) [Example 45, (RS)-9-fluoro-1-({2-[(R)-2-oxo-3-(4-propyl-phenyl)-oxazolidin-5-yl]-ethylamino}-methyl)-1,2-dihydro-pyrrolo[3,2,1-ij]quinolin-4-one], the MIC was 0.063 µg/mL. This MIC is about 2-fold lower than that of the molecule before.
As for `O=C1O[C@H](CCNCC2Cn3c(=O)ccc4ccc(F)c2c43)CN1c1ccc2c(c1)OCCO2` (mixture of isomers) [Example 46, (RS)-1-({2-[(R)-3-(2,3-dihydro-benzo[1,4]dioxin-6-yl)-2-oxo-oxazolidin-5-yl]-ethylamino}-methyl)-9-fluoro-1,2-dihydro-pyrrolo[3,2,1-ij]quinolin-4-one], the figure is no more than 0.031 µg/mL.
As to `O=C1CSc2ccc(N3C[C@@H](CCCNCC4Cn5c(=O)ccc6ccc(F)c4c65)OC3=O)cc2N1` (mixture of isomers) [Example 51, (RS)-9-fluoro-1-({3-[(R)-2-oxo-3-(3-oxo-3,4-dihydro-2H-benzo[1,4]thiazin-6-yl)-oxazolidin-5-yl]-propylamino}-methyl)-1,2-dihydro-pyrrolo[3,2,1-ij]quinolin-4-one], the MIC is no more than 0.031 µg/mL.
Consider `O=C1COc2ccc(N3C[C@@H](CCCNCC4Cn5c(=O)ccc6ccc(F)c4c65)OC3=O)cc2N1` (mixture of isomers) [Example 52, (RS)-9-fluoro-1-({3-[(R)-2-oxo-3-(3-oxo-3,4-dihydro-2H-benzo[1,4]oxazin-6-yl)-oxazolidin-5-yl]-propylamino}-methyl)-1,2-dihydro-pyrrolo[3,2,1-ij]quinolin-4-one], for which the MIC was no more than 0.031 µg/mL.
Take `O=C1CSc2ccc(N3C[C@H](CCNCC4Cn5c(=O)cnc6cccc4c65)OC3=O)cc2N1` (mixture of isomers) [Example 56, (RS)-6-({2-[(S)-2-oxo-3-(3-oxo-3,4-dihydro-2H-benzo[1,4]thiazin-6-yl)-oxazolidin-5-yl]-ethylamino}-methyl)-5,6-dihydro-pyrrolo[1,2,3-de]quinoxalin-3-one]: the MIC was no more than 0.031 µg/mL.
`CCCc1ccc(N2C[C@@H](CCNC3Cn4c(=O)ccc5ccc(F)c3c54)OC2=O)cc1` (mixture of isomers) [Example 59, (RS)-9-fluoro-1-{2-[(R)-2-oxo-3-(4-propyl-phenyl)-oxazolidin-5-yl]-ethylamino}-1,2-dihydro-pyrrolo[3,2,1-ij]quinolin-4-one] yielded an MIC of 4 µg/mL.
For `O=C1O[C@@H](CCNCC2Cn3c(=O)ccc4ccc(F)c2c43)CN1c1ccc2c(c1)OCCO2` (mixture of isomers) [Example 60, (RS)-1-({2-[(S)-3-(2,3-dihydro-benzo[1,4]dioxin-6-yl)-2-oxo-oxazolidin-5-yl]-ethylamino}-methyl)-9-fluoro-1,2-dihydro-pyrrolo[3,2,1-ij]quinolin-4-one], the minimum inhibitory concentration (MIC) is no more than 0.031 µg/mL.
Turning to `O=C1CSc2ccc(N3C[C@@H](CNCC4Cn5c(=O)ccc6cccc4c65)OC3=O)cc2N1` (mixture of isomers) [Example 63, (RS)-1-({[(R)-2-oxo-3-(3-oxo-3,4-dihydro-2H-benzo[1,4]thiazin-6-yl)-oxazolidin-5-ylmethyl]-amino}-methyl)-1,2-dihydro-pyrrolo[3,2,1-ij]quinolin-4-one], the MIC was 0.031 µg/mL.
`O=C1CSc2ccc(N3C[C@@H](CN(CCCO)CCC4Cn5c(=O)ccc6ccc(F)c4c65)OC3=O)cc2N1` (mixture of isomers) [Example 68, (RS)-9-fluoro-1-(2-{(3-hydroxy-propyl)-[(R)-2-oxo-3-(3-oxo-3,4-dihydro-2H-benzo[1,4]thiazin-6-yl)-oxazolidin-5-ylmethyl]-amino}-ethyl)-1,2-dihydro-pyrrolo[3,2,1-ij]quinolin-4-one]: the MIC was no more than 0.031 µg/mL.
Next, `O=C1CSc2ccc(N3C[C@@H](CN(CCO)CCC4Cn5c(=O)ccc6ccc(F)c4c65)OC3=O)cc2N1` (mixture of isomers) [Example 69, (RS)-9-fluoro-1-(2-{(2-hydroxy-ethyl)-[(R)-2-oxo-3-(3-oxo-3,4-dihydro-2H-benzo[1,4]thiazin-6-yl)-oxazolidin-5-ylmethyl]-amino}-ethyl)-1,2-dihydro-pyrrolo[3,2,1-ij]quinolin-4-one]: no more than 0.031 µg/mL; `O=C1COc2ccc(N3C[C@@H](CCCNC4Cn5c(=O)ccc6ccc(F)c4c65)OC3=O)nc2N1` (mixture of isomers) [Example 70, (RS)-9-fluoro-1-{3-[(R)-2-oxo-3-(3-oxo-3,4-dihydro-2H-pyrido[3,2-b][1,4]oxazin-6-yl)-oxazolidin-5-yl]-propylamino}-1,2-dihydro-pyrrolo[3,2,1-ij]quinolin-4-one]: no more than 0.031 µg/mL.
As for `O=C1CSc2ccc(N3C[C@H](CNCC4Cn5c(=O)ccc6cccc4c65)OC3=O)cc2N1` (mixture of isomers) [Example 81, (RS)-1-({[(S)-2-oxo-3-(3-oxo-3,4-dihydro-2H-benzo[1,4]thiazin-6-yl)-oxazolidin-5-ylmethyl]-amino}-methyl)-1,2-dihydro-pyrrolo[3,2,1-ij]quinolin-4-one], the MIC was no more than 0.031 µg/mL.
Next, `O=C1COc2ccc(N3C[C@@H](CNCC4Cn5c(=O)ccc6cccc4c65)OC3=O)cc2N1` (mixture of isomers) [Example 82, (RS)-1-({[(R)-2-oxo-3-(3-oxo-3,4-dihydro-2H-benzo[1,4]oxazin-6-yl)-oxazolidin-5-ylmethyl]-amino}-methyl)-1,2-dihydro-pyrrolo[3,2,1-ij]quinolin-4-one]: 0.25 µg/mL.
`O=C1CSc2ccc(N3C[C@H](CCNC4Cn5c(=O)ccc6ncc(F)c4c65)OC3=O)cc2N1` (mixture of isomers) [Example 84, (RS)-3-fluoro-4-{2-[(S)-2-oxo-3-(3-oxo-3,4-dihydro-2H-benzo[1,4]thiazin-6-yl)-oxazolidin-5-yl]-ethylamino}-4,5-dihydro-pyrrolo[3,2,1-de][1,5]naphthyridin-7-one] came in with an MIC of 0.063 µg/mL. This MIC lies about 4-fold lower than the previous one.

Source of the values: US9822114B2, “Tricyclic oxazolidinone antibiotic compounds” (Idorsia Pharmaceuticals Ltd, priority 2008, dated 2017).
